What was measured:
[1] = system: Liver microsome; experiment: Intrinsic clearance in human liver microsomes measured per gram of tissue at 2.5 uM; assay type: ADME
[2] = system: Liver microsome; experiment: Intrinsic clearance in Wistar rat liver microsomes measured per gram of tissue at 2.5 uM; assay type: ADME
[3] = target: Metabotropic glutamate receptor 5 (Rattus norvegicus) (UniProt P31424); experiment: Displacement of [3H]-M-MPEP from rat cerebrocortical mGluR5 receptor at 1 uM
[4] = system: Rattus norvegicus; experiment: Anxiolytic effect in po dosed Wistar male rat assessed as increase in number of accepted shocks by vogel punished drinking test; assay type: functional; conditions: read-out: MED
[5] = target: T1, Metabotropic glutamate receptor 5 (Rattus norvegicus, UniProt P31424); experiment: Negative allosteric modulation of mGlu5 receptor in primary E17 rat embryo neuron assessed as ca2+ level by fluo-4/AM assay
[6] = target: T1, Metabotropic glutamate receptor 5; experiment: Displacement of [3H]-M-MPEP from rat cerebrocortical mGluR5 receptor
[7] = system: Rattus norvegicus; experiment: Anxiolytic effect in ip dosed Wistar male rat assessed as increase in number of accepted shocks by vogel punished drinking test; assay type: functional

T1 sequence (P31424 whole entry): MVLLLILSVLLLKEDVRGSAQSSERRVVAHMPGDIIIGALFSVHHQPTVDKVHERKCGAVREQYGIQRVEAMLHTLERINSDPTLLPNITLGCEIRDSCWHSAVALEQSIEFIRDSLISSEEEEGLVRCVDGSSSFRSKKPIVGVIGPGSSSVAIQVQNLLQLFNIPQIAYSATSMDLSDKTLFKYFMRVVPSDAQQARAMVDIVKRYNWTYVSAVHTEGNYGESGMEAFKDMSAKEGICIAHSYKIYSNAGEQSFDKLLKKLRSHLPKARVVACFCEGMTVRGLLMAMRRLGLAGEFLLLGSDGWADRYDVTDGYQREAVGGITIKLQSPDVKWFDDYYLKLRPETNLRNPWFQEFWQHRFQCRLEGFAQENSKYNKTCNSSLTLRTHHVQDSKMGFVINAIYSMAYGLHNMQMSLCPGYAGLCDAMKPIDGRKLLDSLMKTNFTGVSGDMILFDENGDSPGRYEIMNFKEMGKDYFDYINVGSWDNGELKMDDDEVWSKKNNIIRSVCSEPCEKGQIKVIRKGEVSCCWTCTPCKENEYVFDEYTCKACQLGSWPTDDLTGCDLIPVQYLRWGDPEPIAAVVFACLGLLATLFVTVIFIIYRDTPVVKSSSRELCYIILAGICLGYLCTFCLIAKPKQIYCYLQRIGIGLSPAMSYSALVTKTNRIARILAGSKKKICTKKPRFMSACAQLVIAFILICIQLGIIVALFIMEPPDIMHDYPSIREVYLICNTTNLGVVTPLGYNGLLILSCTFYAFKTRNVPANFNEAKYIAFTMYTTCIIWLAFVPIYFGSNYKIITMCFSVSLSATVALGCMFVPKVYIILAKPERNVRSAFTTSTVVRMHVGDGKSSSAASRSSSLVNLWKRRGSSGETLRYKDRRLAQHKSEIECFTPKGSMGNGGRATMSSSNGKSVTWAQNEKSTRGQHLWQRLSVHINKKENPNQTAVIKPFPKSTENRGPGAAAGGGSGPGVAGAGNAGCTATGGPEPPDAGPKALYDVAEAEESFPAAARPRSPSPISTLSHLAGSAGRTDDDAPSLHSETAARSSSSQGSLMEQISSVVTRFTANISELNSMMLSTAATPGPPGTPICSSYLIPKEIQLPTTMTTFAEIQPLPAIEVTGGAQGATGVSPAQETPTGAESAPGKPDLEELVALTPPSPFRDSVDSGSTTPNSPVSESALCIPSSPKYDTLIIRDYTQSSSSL
Chain of Metabotropic glutamate receptor 5 (Rattus norvegicus) (P31424 21-1203 limits assumed): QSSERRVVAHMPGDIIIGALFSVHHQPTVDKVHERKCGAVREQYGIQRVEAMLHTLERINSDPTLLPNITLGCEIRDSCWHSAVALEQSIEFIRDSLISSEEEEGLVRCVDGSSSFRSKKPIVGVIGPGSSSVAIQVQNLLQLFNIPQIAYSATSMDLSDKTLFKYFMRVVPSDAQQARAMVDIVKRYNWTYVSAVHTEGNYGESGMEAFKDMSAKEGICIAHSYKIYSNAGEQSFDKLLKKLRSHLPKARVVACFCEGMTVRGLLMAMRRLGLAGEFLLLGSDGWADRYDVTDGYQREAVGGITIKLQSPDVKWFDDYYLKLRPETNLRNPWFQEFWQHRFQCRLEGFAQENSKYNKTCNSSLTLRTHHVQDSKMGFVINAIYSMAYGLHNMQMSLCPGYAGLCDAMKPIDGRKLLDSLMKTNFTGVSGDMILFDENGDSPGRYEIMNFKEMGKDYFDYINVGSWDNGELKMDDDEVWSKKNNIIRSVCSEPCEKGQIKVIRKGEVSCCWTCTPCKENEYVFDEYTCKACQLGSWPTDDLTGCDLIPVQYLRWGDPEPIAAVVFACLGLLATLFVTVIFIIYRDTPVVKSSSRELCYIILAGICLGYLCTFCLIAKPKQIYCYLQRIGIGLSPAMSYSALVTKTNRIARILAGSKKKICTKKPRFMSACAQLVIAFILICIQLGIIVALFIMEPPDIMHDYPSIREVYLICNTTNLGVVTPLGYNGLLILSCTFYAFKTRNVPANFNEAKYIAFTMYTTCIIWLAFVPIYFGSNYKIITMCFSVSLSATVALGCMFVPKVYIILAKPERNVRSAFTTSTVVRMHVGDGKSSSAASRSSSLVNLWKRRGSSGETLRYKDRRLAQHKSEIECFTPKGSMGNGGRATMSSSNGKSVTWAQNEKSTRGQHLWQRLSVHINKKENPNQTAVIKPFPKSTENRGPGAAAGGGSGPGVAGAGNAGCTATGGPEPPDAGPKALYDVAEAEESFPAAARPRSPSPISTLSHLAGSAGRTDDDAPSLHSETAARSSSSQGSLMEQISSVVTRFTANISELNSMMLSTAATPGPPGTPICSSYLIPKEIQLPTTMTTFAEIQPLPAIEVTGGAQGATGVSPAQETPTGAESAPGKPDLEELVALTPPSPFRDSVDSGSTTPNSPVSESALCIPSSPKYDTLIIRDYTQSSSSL

Question: COc1ccnc2sc(S(=O)(=O)c3ccc(Cl)cc3)c(-c3ccc(Cl)cc3)c12 was tested. Which CLH [1] did it give?
Answer: 1 mL/min/g

Question: What about the CLH [2] of the same molecule?
Answer: 6.5 mL/min/g

Question: And the inhibition [3]?
Answer: 20%

Question: What does the source list for COc1ccc2c(-c3ccc(Cl)cc3)c(S(=O)(=O)c3cccc(C#N)c3)sc2n1?
Answer: CLH [1]: 0.3 mL/min/g; CLH [2]: 4.2 mL/min/g; inhibition [3]: 50%

Question: For CC(=O)Nc1ccc(S(=O)(=O)c2sc3ncccc3c2-c2ccc(Cl)cc2)cc1, which inhibition [3] is on record?
Answer: 6%

Question: How did the inhibition [3] turn out when O=S(=O)(c1sc2ncccc2c1-c1ccc(Cl)cc1)C1CCCCC1 was run?
Answer: 14%

Question: What does the source list for N#Cc1cc(F)cc(S(=O)(=O)c2sc3ncc(N)cc3c2-c2cccc(F)c2)c1?
Answer: minimal effective dose [4]: 3 mg/kg; CLH [1]: 0.9 mL/min/g; CLH [2]: 1.2 mL/min/g; IC50 [5]: 0.0055 µM

Question: Which inhibition [3] does the source give for O=S(=O)(Cc1ccccc1)c1sc2ncccc2c1-c1ccc(Cl)cc1 here?
Answer: 25%

Question: With CN(C)c1ccc2c(-c3ccc(Cl)cc3)c(S(=O)(=O)c3ccc(Cl)cc3)sc2n1 as the molecule, how does the CLH [1] read?
Answer: 1.4 mL/min/g

Question: And the CLH [2]?
Answer: 3.7 mL/min/g

Question: And the inhibition [3]?
Answer: 2%

Question: Which CLH [1] does the source give for O=S(=O)(c1ccc(Cl)cc1)c1sc2nccc(O)c2c1-c1ccc(Cl)cc1 here?
Answer: 0.01 mL/min/g

Question: What about the CLH [2] of the same molecule?
Answer: 0.7 mL/min/g

Question: And the inhibition [3]?
Answer: 34%

Question: Which results are given for N#Cc1ccc(-c2c(S(=O)(=O)c3cccc(C#N)c3)sc3ncccc23)cc1?
Answer: CLH [1]: 0.1 mL/min/g; CLH [2]: 2.9 mL/min/g; inhibition [3]: 62%

Question: With O=S(=O)(c1ccc(Cl)cc1)c1sc2ncccc2c1Oc1ccc(Cl)cc1 as the molecule, how does the CLH [1] read?
Answer: 3 mL/min/g

Question: And the CLH [2]?
Answer: 9.3 mL/min/g

Question: And the inhibition [3]?
Answer: 11%

Question: How did the CLH [1] turn out when Nc1ccc2c(-c3ccc(Cl)cc3)c(S(=O)(=O)c3ccc(Cl)cc3)sc2n1 was run?
Answer: 0.01 mL/min/g

Question: What about the Ki [6] of the same molecule?
Answer: 0.083 µM

Question: And the CLH [2]?
Answer: 0.5 mL/min/g

Question: And the IC50 [5]?
Answer: 0.374 µM

Question: What does the source list for CS(=O)(=O)c1ccc(-c2c(S(=O)(=O)c3ccc(Cl)cc3)sc3ncccc23)cc1?
Answer: CLH [1]: 0.4 mL/min/g; CLH [2]: 2.4 mL/min/g; inhibition [3]: 13%

Question: Which results are given for O=S(=O)(c1ccc(Cl)cc1)c1sc2nc(O)ccc2c1-c1ccc(Cl)cc1?
Answer: CLH [1]: 0.04 mL/min/g; Ki [6]: 0.06 µM; CLH [2]: 0.9 mL/min/g; IC50 [5]: 0.338 µM

Question: For O=S(=O)(NCc1ccc(Cl)cc1)c1sc2ncccc2c1-c1ccc(Cl)cc1, which inhibition [3] is on record?
Answer: 30%

Question: Which CLH [1] does the source give for N#Cc1cc(F)cc(S(=O)(=O)c2sc3ncc(N)cc3c2-c2cnccc2Cl)c1 here?
Answer: 1.1 mL/min/g

Question: And the Ki [6]?
Answer: 0.0093 µM

Question: What about the CLH [2] of the same molecule?
Answer: 1 mL/min/g

Question: And the IC50 [5]?
Answer: 0.034 µM

Question: Cc1noc(C)c1S(=O)(=O)c1sc2ncccc2c1-c1ccc(Cl)cc1 was tested. Which inhibition [3] did it give?
Answer: 0%

Question: O=S(=O)(c1ccc(Cl)cc1)c1sc2ncccc2c1-c1ccc(Cl)cc1 was tested. Which Activity [7] did it give?
Answer: Dose-dependent effect

Question: And the minimal effective dose ([7]; read-out: MED)?
Answer: 40 mg/kg

Question: And the CLH [1]?
Answer: 1.6 mL/min/g

Question: What about the CLH [2] of the same molecule?
Answer: 4.2 mL/min/g

Question: O=S(=O)(c1cccs1)c1sc2ncccc2c1-c1ccc(Cl)cc1 was tested. Which inhibition [3] did it give?
Answer: 34%

Question: For Nc1cnc2sc(S(=O)(=O)c3ccc(Cl)cc3)c(-c3cccc(F)c3)c2c1, which CLH [1] is on record?
Answer: 1.7 mL/min/g

Question: And the Ki [6]?
Answer: 0.037 µM

Question: And the CLH [2]?
Answer: 1.8 mL/min/g

Question: What about the IC50 [5] of the same molecule?
Answer: 0.127 µM

Question: With N#Cc1cc(F)cc(S(=O)(=O)c2sc3ncc(N)cc3c2-c2ccc(F)c(F)c2)c1 as the molecule, how does the CLH [1] read?
Answer: 0.9 mL/min/g

Question: And the Ki [6]?
Answer: 0.0027 µM

Question: And the CLH [2]?
Answer: 1 mL/min/g

Question: And the IC50 [5]?
Answer: 0.009 µM

Question: Cc1cc(C)c(S(=O)(=O)c2sc3ncccc3c2-c2ccc(Cl)cc2)c(C)c1 was tested. Which inhibition [3] did it give?
Answer: 0%

Question: With N#Cc1cc(F)cc(S(=O)(=O)c2sc3ncc(N)cc3c2-c2ccc(F)cc2)c1 as the molecule, how does the CLH [1] read?
Answer: 0.8 mL/min/g

Question: What about the Ki [6] of the same molecule?
Answer: 0.0028 µM

Question: And the CLH [2]?
Answer: 1.2 mL/min/g

Question: And the IC50 [5]?
Answer: 0.0064 µM

Question: For N#Cc1cc(F)cc(S(=O)(=O)c2sc3nc(F)ccc3c2-c2ccc(F)cc2)c1, which CLH [1] is on record?
Answer: 3.5 mL/min/g

Question: What about the Ki [6] of the same molecule?
Answer: 0.0028 µM

Question: What about the CLH [2] of the same molecule?
Answer: 2 mL/min/g

Question: And the IC50 [5]?
Answer: 0.014 µM

Question: With CC1CCN(S(=O)(=O)c2sc3ncccc3c2-c2ccc(Cl)cc2)CC1 as the molecule, how does the inhibition [3] read?
Answer: 39%

Question: N#Cc1cccc(S(=O)(=O)c2sc3nc(Cl)ccc3c2-c2ccc(Cl)cc2)c1 was tested. Which CLH [1] did it give?
Answer: 1.4 mL/min/g

Question: And the CLH [2]?
Answer: 3.6 mL/min/g

Question: And the inhibition [3]?
Answer: 19%

Question: With O=S(=O)(Nc1ccc(Cl)cc1)c1sc2ncccc2c1-c1ccc(Cl)cc1 as the molecule, how does the inhibition [3] read?
Answer: 20%

Question: Which results are given for N#Cc1cccc(S(=O)(=O)c2sc3ncccc3c2-c2ccc(Cl)cc2)c1?
Answer: CLH [1]: 2.4 mL/min/g; Ki [6]: 0.0041 µM; CLH [2]: 12.8 mL/min/g; IC50 [5]: 0.03 µM

Question: Which results are given for N#Cc1cc(F)cc(S(=O)(=O)c2sc3ncccc3c2-c2cnccc2Cl)c1?
Answer: CLH [1]: 1.1 mL/min/g; Ki [6]: 0.0093 µM; CLH [2]: 1 mL/min/g; IC50 [5]: 0.034 µM

Question: What does the source list for O=S(=O)(c1ccc(Cl)cc1)c1sc2nc(Cl)ccc2c1-c1ccc(Cl)cc1?
Answer: CLH [1]: 0.01 mL/min/g; Ki [6]: 0.093 µM; CLH [2]: 3.4 mL/min/g; IC50 [5]: 1.03 µM

Question: For Cc1nc(C)c(S(=O)(=O)c2sc3ncccc3c2-c2ccc(Cl)cc2)s1, which inhibition [3] is on record?
Answer: 35%

Question: Which inhibition [3] does the source give for CCCCS(=O)(=O)c1sc2ncccc2c1-c1ccc(Cl)cc1 here?
Answer: 30%

Question: O=S(=O)(c1ccccc1Cl)c1sc2ncccc2c1-c1ccc(Cl)cc1 was tested. Which inhibition [3] did it give?
Answer: 32%

Question: Which results are given for N#Cc1cccc(-c2c(S(=O)(=O)c3cccc(C#N)c3)sc3ncccc23)c1?
Answer: CLH [1]: 1.1 mL/min/g; Ki [6]: 0.085 µM; CLH [2]: 3.9 mL/min/g; IC50 [5]: 0.105 µM

Question: For N#Cc1cc(F)cc(S(=O)(=O)c2sc3ncccc3c2-c2ccc(F)cc2)c1, which CLH [1] is on record?
Answer: 2.1 mL/min/g

Question: What about the Ki [6] of the same molecule?
Answer: 0.0024 µM

Question: What about the CLH [2] of the same molecule?
Answer: 2.1 mL/min/g

Question: What about the IC50 [5] of the same molecule?
Answer: 0.0106 µM

Source: ChEMBL document CHEMBL3400086, “Thieno[2,3-b]pyridines as negative allosteric modulators of metabotropic GluR5 receptors: Lead optimization” (Bioorg Med Chem Lett, 2015)
